Legend:
Details in all cases: 72 h
[1] = test system: Calu-3; assay: drug sensitivity score (DSS) for viability; higher = more toxic; extreme values may be limits of the assay
[2] = test system: Caco-2; assay: as above
[3] = test system: Vero E6; assay: as above
[4] = test system: HepG2; assay: as above
[5] = test system: U2OS; assay: as above
[6] = test system: Calu-3; assay: relative viability EC50 (midpoint between 100% and the lowest measured viability); higher = less toxic
[7] = test system: Caco-2; assay: as above
[8] = test system: Vero E6; assay: as above
[9] = test system: HepG2; assay: as above
[10] = test system: U2OS; assay: as above
[11] = test system: Calu-3; assay: cell viability relative to DMSO; higher = less toxic
[12] = test system: Caco-2; assay: as above
[13] = test system: Vero E6; assay: as above
[14] = test system: HepG2; assay: as above
[15] = test system: U2OS; assay: as above

Row | Structure (SMILES) | drug sensitivity score [1] | drug sensitivity score [2] | drug sensitivity score [3] | drug sensitivity score [4] | drug sensitivity score [5] | relative viability EC50 [6] [µM] | relative viability EC50 [7] [µM] | relative viability EC50 [8] [µM] | relative viability EC50 [9] [µM] | relative viability EC50 [10] [µM] | cell viability ([11]; 1 nM) [%] | cell viability ([11]; 10 nM) [%] | cell viability ([11]; 100 nM) [%] | cell viability ([11]; 1000 nM) [%] | cell viability ([11]; 10000 nM) [%] | cell viability ([12]; 1 nM) [%] | cell viability ([12]; 10 nM) [%] | cell viability ([12]; 100 nM) [%] | cell viability ([12]; 1000 nM) [%] | cell viability ([12]; 10000 nM) [%] | cell viability ([13]; 1 nM) [%] | cell viability ([13]; 10 nM) [%] | cell viability ([13]; 100 nM) [%] | cell viability ([13]; 1000 nM) [%] | cell viability ([13]; 10000 nM) [%] | cell viability ([14]; 1 nM) [%] | cell viability ([14]; 10 nM) [%] | cell viability ([14]; 100 nM) [%] | cell viability ([14]; 1000 nM) [%] | cell viability ([14]; 10000 nM) [%] | cell viability ([15]; 1 nM) [%] | cell viability ([15]; 10 nM) [%] | cell viability ([15]; 100 nM) [%] | cell viability ([15]; 1000 nM) [%] | cell viability ([15]; 10000 nM) [%]
1 | COc1c(-c2ccc3cc(NS(C)(=O)=O)ccc3c2)cc(-n2ccc(=O)[nH]c2=O)cc1C(C)(C)C [dasabuvir] | 0 | 0 | 0 | 0 | 0 | > 10 | > 10 | > 10 | > 10 | > 10 | 94 | 106 | 93.7 | 97.9 | 104 | 96.2 | 94.5 | 87.8 | 98.9 | 96.3 | 91.5 | 98.3 | 92.8 | 97 | 106 | 90.4 | 102 | 90.4 | 102 | 109 | 98.5 | 96.9 | 102 | 96.5 | 96.3
2 | CC(=O)Oc1ccccc1C(=O)O [aspirin] | 0 | 3.8 | 0 | 0 | 0 | > 10 | > 10 | > 10 | > 10 | > 10 | 102 | 90.1 | 94.1 | 92.6 | 101 | 92.4 | 89.3 | 81 | 80 | 89.7 | 90.7 | 96.7 | 90 | 96.2 | 108 | 95.2 | 100 | 93.8 | 104 | 109 | 96.5 | 93.5 | 104 | 98.3 | 103
3 | O=C1c2ccccc2C(=O)C1c1ccc(Cl)cc1 [chlorindione] | 0 | 0 | 0 | 0 | 0 | > 10 | > 10 | > 10 | > 10 | > 10 | 103 | 103 | 99.5 | 106 | 99.7 | 94.5 | 84.3 | 104 | 95.2 | 106 | 95.1 | 95.2 | 90.3 | 93.6 | 108 | 96.8 | 108 | 106 | 111 | 122 | 99.5 | 93.8 | 105 | 97.4 | 95.4
4 | O=C(Nc1ccccc1)N1CCN(c2nc(-c3ccccc3)ns2)CC1 | 0 | 0.4 | 0.3 | 0.6 | 0 | > 10 | > 10 | > 10 | > 10 | > 10 | 116 | 102 | 106 | 96.8 | 102 | 100 | 97.8 | 101 | 95.4 | 86.7 | 93.3 | 96.3 | 94.1 | 93 | 83 | 100 | 118 | 101 | 106 | 76.9 | 104 | 99.5 | 97.8 | 99.6 | 98.9
5 | C#C[C@]1(OC(C)=O)CC[C@H]2[C@@H]3CCC4=CC(=NO)CC[C@@H]4[C@H]3CC[C@@]21CC (mixture of isomers) [norgestimate] | 0 | 0 | 0 | 0 | 0 | > 10 | > 10 | > 10 | > 10 | > 10 | 98.6 | 104 | 102 | 106 | 104 | 98.3 | 87.7 | 73.4 | 93 | 92.4 | 99 | 94 | 99.2 | 99.6 | 102 | 108 | 97.6 | 107 | 91.3 | 111 | 97 | 104 | 94.3 | 99.6 | 96.2
6 | Oc1noc2c1CCNC2 [gaboxadol] | 0 | 0 | 0 | 0 | 0 | > 10 | > 10 | > 10 | > 10 | > 10 | 99.7 | 91.4 | 103 | 103 | 99.4 | 92.6 | 99 | 91.6 | 104 | 95.3 | 96.6 | 95.8 | 96.2 | 94.6 | 106 | 105 | 101 | 88.2 | 101 | 98.1 | 102 | 100 | 94.3 | 98.3 | 94.2
7 | CC(C)C(=O)OC[C@@]1(N=[N+]=[N-])O[C@@H](n2ccc(N)nc2=O)[C@H](OC(=O)C(C)C)[C@@H]1OC(=O)C(C)C [balapiravir] | 0 | 0 | 0 | 0 | 0 | > 10 | > 10 | > 10 | > 10 | > 10 | 99 | 99.1 | 97 | 100 | 102 | 103 | 87 | 100 | 98.7 | 88.9 | 98.6 | 92.8 | 93.4 | 98.4 | 90.7 | 95.6 | 102 | 92.6 | 102 | 92.4 | 99.6 | 94.9 | 96 | 95.5 | 94.6

From the supplement of paper PMC13380429
